These results are taken from ChEMBL document CHEMBL5390269, “Synthesis, anti-inflammatory activity, and conformational relationship studies of chromone derivatives incorporating amide groups” (Bioorg Med Chem Lett, 2023).

In general, pIC50 refers to the IC50 on a negative log10 scale, so that one unit is a factor of ten. What is called pEC50 is the EC50 on a negative log10 scale, so that one unit is a factor of ten.

Each structure is given as a SMILES string. pEC50, pIC50: −log10 of the molar value.

System in the first series: not listed separately
Description: Cytotoxicity against mouse RAW264.7 cells assessed as cell growth inhibition by CCK-8 colorimetric assay. The class given is toxicity, cell-based. (Tetrazolium dyes change colour on reduction, which living cells bring about.)
On to `O=C(Nc1ccc(Br)cc1)c1cc(=O)c2ccccc2o1`, for which the negative-log IC50 (pIC50) is 4.61. On the same count and under the same terms, the value for `COc1cc(OC)c2c(=O)cc(C(=O)Nc3ccc(C)c(Cl)c3)oc2c1` was 4.32; that for `COc1ccc2c(=O)cc(C(=O)Nc3ccccc3C)oc2c1` was 3.09. On to `O=C(Nc1ccc(C(F)(F)F)cc1)c1cc(=O)c2ccc(Br)cc2o1`, for which the negative logarithm of the IC50 (pIC50) was 3.49. With `COc1cccc2oc(C(=O)Nc3cc(Cl)ccc3C)cc(=O)c12`, the pIC50 was 4.32. Take `Cc1ccc2oc(C(=O)Nc3cc(Cl)ccc3C)cc(=O)c2c1`: the negative-log IC50 (pIC50) is 4.42. In the case of `CC(C)Cc1ccc(C(C)C(=O)O)cc1` (stereo unspecified) [IBUPROFEN], the negative-log IC50 (pIC50) was less than 3.00.

The target in the next series is T1, Prostaglandin G/H synthase 2 (Homo sapiens, UniProt P35354).
T1 sequence (P35354 whole entry): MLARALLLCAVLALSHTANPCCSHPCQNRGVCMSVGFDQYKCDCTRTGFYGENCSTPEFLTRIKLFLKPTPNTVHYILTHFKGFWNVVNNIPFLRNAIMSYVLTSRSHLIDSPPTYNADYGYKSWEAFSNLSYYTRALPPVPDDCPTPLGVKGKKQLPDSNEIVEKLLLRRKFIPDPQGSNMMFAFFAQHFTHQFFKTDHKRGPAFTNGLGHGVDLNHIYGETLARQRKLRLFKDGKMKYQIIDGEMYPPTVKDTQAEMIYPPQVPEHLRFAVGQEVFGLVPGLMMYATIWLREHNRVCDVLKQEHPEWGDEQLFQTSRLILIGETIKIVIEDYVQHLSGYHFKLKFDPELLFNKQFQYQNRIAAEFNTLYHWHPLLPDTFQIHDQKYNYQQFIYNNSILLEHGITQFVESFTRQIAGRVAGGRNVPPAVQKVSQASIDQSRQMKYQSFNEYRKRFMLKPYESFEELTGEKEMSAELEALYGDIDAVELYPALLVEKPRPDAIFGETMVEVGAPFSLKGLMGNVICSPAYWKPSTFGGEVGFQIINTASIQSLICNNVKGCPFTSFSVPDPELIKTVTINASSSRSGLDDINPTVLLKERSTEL
Description: Inhibition of COX-2 (unknown origin).
`O=C1Nc2ccccc2/C1=C/c1coc2ccccc2c1=O` gave a negative-log IC50 (pIC50) of 7.70.

The subject of another series is RAW264.7. Description: Anti-inflammatory activity in mouse RAW264.7 cells assessed as inhibition of LPS-stimulated NO production. The class given is functional, cell-based.
Consider `Cc1ccc(NC(=O)c2cc(=O)c3ccc(Br)cc3o2)cc1C`, for which the pEC50 was 3.09. Still for that read-out and setting: in the case of `COc1ccc(NC(=O)c2cc(=O)c3ccc(Br)cc3o2)cc1` it was 3.76; in that of `COc1ccc2c(=O)cc(C(=O)Nc3ccc(Cl)c(F)c3)oc2c1`, 4.96.

With `O=C(Nc1ccc(F)c(F)c1)c1cc(=O)c2ccccc2o1`, the negative logarithm of the EC50 (pEC50) is 4.04. Still for that read-out and setting: the value for `COc1cccc2oc(C(=O)Nc3ccc(Br)cc3)cc(=O)c12` was 3.42; that for `Cc1ccc2oc(C(=O)Nc3ccc(Cl)c(Cl)c3)cc(=O)c2c1` was 4.39; that for `COc1ccc2c(=O)cc(C(=O)Nc3ccc(C)c(Cl)c3)oc2c1` was 4.34. Take `O=C(Nc1ccc(Br)cc1)c1cc(=O)c2ccccc2o1`: the pEC50 was 4.39.

In the case of `COc1cccc2oc(C(=O)Nc3ccc(Cl)c(F)c3)cc(=O)c12`, the negative logarithm of the EC50 (pEC50) is 4.08.

Regarding `Cc1ccc2oc(C(=O)Nc3ccc(Cl)c(C(F)(F)F)c3)cc(=O)c2c1`, the pEC50 was 4.39.

As to `COc1ccc(NC(=O)c2cc(=O)c3c(OC)cc(OC)cc3o2)cc1`, the pEC50 was 4.67.

Regarding `COc1cc(OC)c2c(=O)cc(C(=O)Nc3ccc(C)c(Cl)c3)oc2c1`, the pEC50 was 3.94. Still for that read-out and setting: in the case of `O=C(Nc1ccc(F)c(F)c1)c1cc(=O)c2ccc(Br)cc2o1` it was 3.86; in that of `COc1ccc2c(=O)cc(C(=O)Nc3ccccc3C)oc2c1`, 5.27; in that of `O=C(Nc1ccc(C(F)(F)F)cc1)c1cc(=O)c2ccc(Br)cc2o1`, 3.78. On to `Cc1ccc(NC(=O)c2cc(=O)c3ccccc3o2)cc1C`, for which the negative logarithm of the EC50 (pEC50) is 4.50. On to `COc1ccc2c(=O)cc(C(=O)Nc3ccc(Br)cc3)oc2c1`, for which the negative-log EC50 (pEC50) was 4.05. Still for that read-out and setting: the value for `Cc1ccc(NC(=O)c2cc(=O)c3ccccc3o2)cc1Cl` was 4.52; that for `Cc1ccc2oc(C(=O)Nc3ccc(F)c(F)c3)cc(=O)c2c1` was 4.39.

Turning to `Cc1ccc(Cl)cc1NC(=O)c1cc(=O)c2ccccc2o1`, the pEC50 is 4.34. As to `COc1cccc2oc(C(=O)Nc3ccc(F)c(F)c3)cc(=O)c12`, the negative logarithm of the EC50 (pEC50) is 3.68.

`COc1cccc2oc(C(=O)Nc3ccc(C(F)(F)F)cc3)cc(=O)c12`: the pEC50 was 3.76.

As for `COc1cc(OC)c2c(=O)cc(C(=O)Nc3cc(Cl)ccc3C)oc2c1`, the pEC50 is 4.73. On the same count and under the same terms, the value for `Cc1ccc2oc(C(=O)Nc3ccc(C)c(Cl)c3)cc(=O)c2c1` was 4.10; that for `COc1ccc2c(=O)cc(C(=O)Nc3ccc(Cl)c(C(F)(F)F)c3)oc2c1` was 4.06.

Consider `O=C(Nc1ccc(Br)cc1)c1cc(=O)c2ccc(Br)cc2o1`, for which the pEC50 is 4.30. Consider `COc1ccc(NC(=O)c2cc(=O)c3ccccc3o2)cc1`, for which the pEC50 was 4.38.

As to `COc1ccc2c(=O)cc(C(=O)Nc3ccc(Cl)c(Cl)c3)oc2c1`, the negative logarithm of the EC50 (pEC50) was 4.09. The same measure, in the same setting: the value for `Cc1ccc2oc(C(=O)Nc3cc(Cl)ccc3C)cc(=O)c2c1` was 4.39; that for `COc1cc(OC)c2c(=O)cc(C(=O)Nc3ccc(C(F)(F)F)cc3)oc2c1` was 4.50; that for `COc1cc(OC)c2c(=O)cc(C(=O)Nc3ccc(Cl)c(Cl)c3)oc2c1` was 4.49. Take `COc1cccc2oc(C(=O)Nc3ccc(Cl)c(C(F)(F)F)c3)cc(=O)c12`: the negative logarithm of the EC50 (pEC50) was 3.35. In the case of `COc1ccc(NC(=O)c2cc(=O)c3c(OC)cccc3o2)cc1`, the negative-log EC50 (pEC50) was 3.72. Same read-out and setting: the value for `CC(C)Cc1ccc(C(C)C(=O)O)cc1` (stereo unspecified) [IBUPROFEN] was 4.57; that for `CCOc1ccc(NC(=O)c2cc(=O)c3ccccc3o2)cc1` was less than 3.00; that for `Cc1ccc(NC(=O)c2cc(=O)c3ccc(Br)cc3o2)cc1Cl` was 4.42. The same measure, in the same setting: the value for `O=C(Nc1ccc(C(F)(F)F)cc1)c1cc(=O)c2ccccc2o1` was less than 3.00.

The target in another series is T2, Interleukin-5 (Homo sapiens, UniProt P05113).
T2 sequence (P05113 whole entry): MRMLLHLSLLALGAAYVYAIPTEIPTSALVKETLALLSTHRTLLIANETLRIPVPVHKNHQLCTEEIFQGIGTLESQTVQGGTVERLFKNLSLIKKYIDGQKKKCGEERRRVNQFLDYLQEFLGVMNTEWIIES
Description: Inhibition of IL-5 (unknown origin).
`O=c1c(CCC(O)c2ccc(O)cc2)coc2cccc(OCC3CCCCC3)c12` (stereo unspecified): the negative logarithm of the IC50 (pIC50) was 5.40.
